From patent US20140350119A1, “OPHTHALMIC COMPOSITION COMPRISING GERANYLGERANYLACETONE” (ROHTO PHARMACEUTICAL CO., LTD., priority 2012, published 2014)

Tested on: PC12
Assay: Protective effect against ischemic cell death induced by hypoxia and low glucose (cell viability, Cell Titer-Glo)
Type: cell-based, rat
Conditions: 30 μM, 2 h, then low glucose, zero percent O2, 8 h, FIG. 1, Tukey-Kramer test
Source text: The progress of visual impairment in glaucoma is associated with retinal ganglion cell (RGC) death due to blood flow failure occurring near the optic nerve (Folia Pharmacol. Jpn. 128, 255-258 (2006)). With the use of PC12, which is a typical neural cell line established from rat adrenal […] pheochromocytoma and used also as a model cell for the functional evaluation of RGC (J Neurosci Res. 2000 May 15; 60(4): 495-503.), the cytoprotective effect of GGA against ischemic cell death induced by hypoxia and low glucose was evaluated.
Test samples were prepared as follows. The test substances were four types of GGAs that contain the all-trans form and the 5Z-mono-cis form at a weight ratio of 10:0, 8:2, 6:4, and 0:10, respectively. […]
After 8 hours of incubation, 100 μL of an equivalent mixture of a cell viability detection reagent Cell Titer-Glo (Promega) and PBS was added to each well and the luminescence produced by the reaction with ATP in living cells was measured with a luminometer (GloMax; Promega). The cell viability was calculated from the measured luminescence by the following formula and the cytoprotective effect of GGA against […] was examined.
Cell viability (%)=100×[(luminescence of base- or GGA-treated group)/(luminescence of non-treated group)]

CC(=O)CC/C=C(\C)CC/C=C(\C)CC/C=C(\C)CCC=C(C)C [all-trans form, (5E,9E,13E)-6,10,14,18-tetramethyl-5,9,13,17-nonadecatetrae n-2-one]
Cytoprotective effect compared with GGA of weight ratio 6:4: significantly higher cytoprotective effects
